Assay results taken from ChEMBL document CHEMBL1152061, “New cytostatic agents obtained by molecular topology” (Bioorg Med Chem Lett, 1996).

Key:
HepG2 [1] = assay: Compound was evaluated for the inhibition of cell proliferation of human hepatocellular carcinoma, HepG2 (ATCC HB8065).; assay type: functional, cell-based
HepG2 [2] = assay: Compound was evaluated for the cytotoxicity against human hepatocellular carcinoma, HepG2 (ATCC HB8065); assay type: functional
HeLa [3] = assay: Compound was evaluated for the cytotoxicity against human cervix epithelioid carcinoma, HeLa (ATCC CCL2).; assay type: functional
[4] = Compound was evaluated for the inhibition of cell proliferation of human ocular lens epithelium (CECH).; assay type: functional, tissue-based; details: Lens of camera-type eye
[5] = Cytotoxicity ratio for Human hepatocellular carcinoma, HepG2 (ATCC HB 8065) cells; assay type: functional
HeLa [6] = assay: Compound was evaluated for the inhibition of cell proliferation of human cervix epithelioid carcinoma, HeLa (ATCC CCL2).; assay type: functional, cell-based
[7] = Compound was evaluated for the cytotoxicity against human ocular lens epithelium (CECH).; assay type: functional, Lens of camera-type eye
HeLa [8] = assay: Compound was evaluated for the cytotoxicity against human cervix epithelioid carcinoma, HeLa (ATCC CCL2); assay type: functional

Row | Structure (SMILES) | IC50 (HepG2 [1]) | MNTC (HepG2 [2]) | MNTC (HeLa [3]) | IC50 [4] | Ratio [5] | IC50 (HeLa [6]) | MNTC [7] | MNTC (HeLa [8])
1 | CO[C@@]12[C@H](COC(N)=O)C3=C(C(=O)C(C)=C(N)C3=O)N1C[C@@H]1N[C@@H]12 [MITOMYCIN] | 0.27 µM | 0.7 µM | 2 µM | 0.09 µM | 0.33 | – | – | –
2 | CCn1cc(C(=O)O)c(=O)c2cnc(N3CCCC3)nc21 [PIROMIDIC ACID] | 110 µM | 120 µM | 100 µM | 184 µM | 1.67 | 97 µM | 250 µM | –
3 | CN(C)[C@@H]1C(O)=C(C(N)=O)C(=O)[C@@]2(O)C(O)=C3C(=O)c4c(O)cccc4[C@@](C)(O)[C@H]3C[C@@H]12 [TETRACYCLINE] | 128 µM | – | – | 207 µM | 1.62 | 51 µM | – | –
4 | O=c1[nH]cc(F)c(=O)[nH]1 [FLUOROURACIL] | 85 µM | 100 µM | 40 µM | 8 µM | 0.09 | – | – | –
5 | C[C@H]1c2cccc(O)c2C(=O)C2=C(O)[C@]3(O)C(=O)C(C(N)=O)=C(O)[C@@H](N(C)C)[C@@H]3[C@@H](O)[C@@H]21.O [DOXYCYCLINE] | 53 µM | 60 µM | 40 µM | 35 µM | 0.66 | 30 µM | 60 µM | –
6 | Cc1c(C(=O)O)c(O)cc2c1C(=O)c1c(O)c([C@@H]3O[C@H](CO)[C@@H](O)[C@H](O)[C@H]3O)c(O)c(O)c1C2=O [CARMINIC ACID] | 1770 µM | 2500 µM | >5000 µM | 1650 µM | 0.93 | 3730 µM | 2200 µM | –
7 | CNC(C)C1CCC(N)C(OC2C(N)CC(N)C(OC3OCC(C)(O)C(NC)C3O)C2O)O1.CNC1C(O)C(OC2C(N)CC(N)C(OC3OC(C(C)N)CCC3N)C2O)OCC1(C)O.CNC1C(O)C(OC2C(N)CC(N)C(OC3OC(CN)CCC3N)C2O)OCC1(C)O.O=S(=O)(O)O (stereo unspecified) [GENTAMICIN MIXTURE] | – | 210 µM | >1050 µM | – | – | – | 210 µM | –
8 | CCC[C@@H]1C[C@@H](C(=O)N[C@@H]([C@H]2O[C@H](SC)[C@H](O)[C@@H](O)[C@H]2O)[C@H](C)Cl)N(C)C1 [CLINDAMYCIN] | – | >5000 µM | – | – | – | – | 1000 µM | 1000 µM
